Measurements from patent US10065957B2, “Beta-lactamase inhibitors” (Novartis AG, priority 2016, dated 2018).

What was measured:
Assay type in all cases: cell-based
E. coli (CTX-M-15) = assay: microbe, parasite or virus in culture; details: Escherichia coli, Pip alone, read-out: MIC of piperacillin
Description: (§1) MICs were determined by the broth microdilution method in accordance with Clinical and Laboratories Institute (CLSI) guidelines. In brief, fresh overnight bacterial cultures were suspended in sterile saline, and adjusted to a 0.5 McFarland turbidity standard. Bacterial suspensions were then diluted in cation adjusted Mueller-Hinton Broth (MHB II; BBL) to yield a final inoculum of approximately 5×10^5 colony-forming units (CFU)/mL. A master plate of antibiotics was prepared at a concentration equivalent to hundred-fold the highest desired final concentration in 100% dimethyl sulfoxide (DMSO). The master antibiotic plate was then diluted by serial twofold dilution with a multichannel pipette. The resulting dilution series of compounds were diluted 1:10 with sterile water or a solution of beta-lactamase inhibitor prepared at a concentration equivalent to eleven-fold the desired final concentration in deionized water leading to a 10% DMSO final concentration. A volume of 10 μL of the drug dilution series was transferred to 96-well assay plates. Assay plates were inoculated with 90 μL of bacterial suspensions and incubated at 35° C. for 20 hrs. The assay plates were read using a microtiter plate reader (Molecular Devices) at 600 nm as well as by visual observation with a reading mirror. The lowest concentration of the compound that prevented visible growth was recorded as the MIC.
(§2) Synergy or potentiation of beta-lactam antibiotics through inhibition of Q-lactamases was assessed against an isogenic panel of E. coli strains, each expressing a unique beta-lactamase, and against clinical strains.
(§3) Strain NB27273 (BW25113 pspB::Km^r) was obtained from the Keio transposon insertion collection. The strain has the pspB gene replaced by a kanamycin resistance marker (BW25113 pspB::Km^r). This strain was cured of the transposon in pspB via FLP recombinase using published methodology. The resulting strain, BW25113 pspB, was used as a host for multicopy vectors expressing key beta-lactamases. Multicopy plasmids directing constitutive expression of beta-lactamases were established as follows: Synthetic, codon optimized genes encoding E. coli KPC-2, SHV-12 and CTX-M-15 beta-lactamases were made by DNA2.0 (Palo Alto, Calif.). Each of the synthetic fragments were designed to contain NotI and NcoI restriction sites at their termini, allowing ligation into a NotI/NcoI digested pET28a(+) derivative for protein expression. […] The codon optimized nucleotide sequences and relevant primer recognition information is shown below:
(§4) The PCR products were then digested with XhoI and EcoRI and ligated into similarly digested plasmid pAH63-pstS(BlaP). […] Therefore, expression of beta-lactamases from pAH63-pstS(BlaP) based constructs is constitutive and the signal sequence is provided to direct these proteins to the periplasm. […] These fragments were then digested with XbaI and EcoRI, and each was inserted into pBAD18-kan that had been digested with the same enzymes to generate multicopy vectors expressing KPC-2, SHV-12 and CTX-M-15, respectively. These vectors were transformed into BW25113 pspB to generate strains NB27273-CDY0033 (expressing KPC-2), NB27273-CDY0030 (expressing SHV-12), NB27273-CDY0034 (expressing CTX-M-15) and NB27273-CDY0036 (expressing AmpC). The pBAD18-kan vector also contains the TEM promoter region and signal sequence, (but lacks any intact beta-lactamase genes) and was transformed into BW25113 pspB using standard protocols to generate the control strain NB27273-CDY0026.

E. coli (KPC-2) = assay: microbe, parasite or virus in culture; details: Escherichia coli, read-out: MIC of piperacillin
Description: as §1, §2, §3, §4

E. coli (SHV-12) = assay: microbe, parasite or virus in culture; details: Escherichia coli, Pip alone, read-out: MIC of piperacillin
Description: as §1, §2, §3, §4

E. coli (TEM-10) = assay: microbe, parasite or virus in culture; details: Escherichia coli, Pip alone, read-out: MIC of piperacillin
Description: as §1, §2
(§5) Construction of E. coli isogenic strains, NB27273-CDY0105 (OXA-18) and NB27273-CDY0048 (TEM-10). […] The gene encoding OXA-18 was then digested with XhoI and EcoRI and inserted into this vector, from which the gene for GIM-1 had been removed with XhoI and EcoRI.
From this template DNA, three fragments were generated by PCR using the following primer pairs;
This fragment was then digested with XbaI and EcoRI and inserted into pBAD-kan which was also cut with the same enzymes.
(§6) These final vectors for expression of OXA-18 and TEM-10 were transformed into BW25113 pspB to generate strains NB27273-CDY0105 (expressing OXA-18) and NB27273-CDY0048 (expressing TEM-10).

E. coli (AmpC) = assay: microbe, parasite or virus in culture; details: Escherichia coli, Pip alone, read-out: MIC of piperacillin
Description: as §1, with “MIC. Performance of the assay was monitored by testing aztreonam against laboratory quality control strains in accordance with guidelines of the CLSI.” for “MIC.”
as §2
The gene encoding AmpC was PCR amplified from the genome of strain P. aeruginosa PAO1 (NB52019) (GenBank ID U5R279) using primer pair E252 (gccCTCGAGggcgaggccccggcggatcgc) (SEQ ID NO: 17) and E253 (tgaGAATTCtcagcgcttcagcggcacct) (SEQ ID NO: 18).
The PCR products were then digested with XhoI and EcoRI and ligated into similarly digested plasmid pAH63-pstS(BlaP). Plasmid pAH63-pstS(BlaP) is a derivative of plasmid pAH63 (J Bacteriol: 183(21): 6384-6393) made by cloning the TEM-1 (bla) promoter and signal peptide encoding region from plasmid pBAD (J Bacteriol. 1995 July 177(14):4121-30) into plasmid pAH63. This fragment was PCR amplified from pBAD using primer pair E192 (ttcaCTGCAGtgaacgttgcgaagcaacggC) (SEQ ID NO:19) and E194 (TCGAggatcctcgagagcaaaaacaggaaggcaaaatgccg) (SEQ ID NO:20), digested with PstI and BamHI and inserted into similarly digested plasmid pAH63. Therefore, expression of beta-lactamases from pAH63-pstS(BlaP) based constructs is constitutive and the signal sequence is provided to direct these proteins to the periplasm. Plasmid pAH63 based vectors are used for insertion into the genome in single copy, however, to provide higher expression levels to allow more sensitive detection of the susceptibility of compounds to the expressed beta-lactamases, the expression inserts contained in these vectors were moved to the replicative multicopy vector pBAD-Kan (J Bacteriol. 1995 July 177(14):4121-30). To accomplish this, the inserts encompassing the beta-lactamase genes, with the associated TEM promoter and signal sequences, were PCR amplified from their corresponding vectors using primer E268 (ccgTCTAGAcggatggcctttttgcgtttc) (SEQ ID NO:21) and E202 (aatcGAATTCttactgaccattaacgcccaagc) (SEQ ID NO:22) for the KPC2 construct, E204 (aatcGAATTCttaacgctgccagtgctcaatc) (SEQ ID NO:23) for the SHV-12 construct and E203 (aatcGAATTCttacagaccgtcggtgacaatc) (SEQ ID NO:24) for the CTX-M-15 construct. These fragments were then digested with XbaI and EcoRI, and each was inserted into pBAD18-kan that had been digested with the same enzymes to generate multicopy vectors expressing KPC-2, SHV-12 and CTX-M-15, respectively. […]

E. coli (OXA-18) = assay: microbe, parasite or virus in culture
Description: as §1, §2, §5, §6

[1] = test system: Enterobacter cloacae NB25055 (CMY-2); assay: Potentiation of piperacillin in beta-lactam resistant clinical isolate
Description: as §1, with “MIC. Performance of the assay was monitored by testing aztreonam against laboratory quality control strains in accordance with guidelines of the CLSI.” for “MIC.”
as §2

[2] = test system: K. pneumoniae NB29082 (KPC-2); assay: as above
Description: as §1, with “MIC. Performance of the assay was monitored by testing aztreonam against laboratory quality control strains in accordance with guidelines of the CLSI.” for “MIC.”
as §2

S. aureus NB01437 (BLA+) = assay: as above
Description: as §1, with “MIC. Performance of the assay was monitored by testing aztreonam against laboratory quality control strains in accordance with guidelines of the CLSI.” for “MIC.”
as §2

Row | SMILES | MIC (E. coli (CTX-M-15)) | MIC (E. coli (KPC-2)) | MIC (E. coli (SHV-12)) | MIC (E. coli (TEM-10)) | MIC (E. coli (AmpC)) | MIC (E. coli (OXA-18); Escherichia coli, Pip alone, read-out: MIC of piperacillin) | Activity of piperacillin ([1]; piperacillin alone) | Activity of piperacillin ([2]; piperacillin alone) | Activity of piperacillin (S. aureus NB01437 (BLA+); piperacillin alone) | MIC of piperacillin with beta-lactamase inhibitor (E. coli (OXA-18); Pip + BLI at 4 μg/mL) | Activity of piperacillin with beta-lactamase inhibitor ([1]; Pip + BLI at 4 μg/mL) | Activity of piperacillin with beta-lactamase inhibitor ([2]; Pip + BLI at 4 μg/mL) | Activity of piperacillin with beta-lactamase inhibitor (S. aureus NB01437 (BLA+); Pip + BLI at 4 μg/mL)
1 | CCN1CCN(C(=O)N[C@@H](C(=O)N[C@@H]2C(=O)N3C2SC(C)(C)[C@@H]3C(=O)O)c2ccccc2)C(=O)C1=O (stereo partly shown) [Piperacillin] | > 32 µg/mL | > 32 µg/mL | > 32 µg/mL | > 32 µg/mL | > 32 µg/mL | > 32 µg/mL | >64 µg/mL | >64 µg/mL | 64 µg/mL |  |  |  | 
2 | C[C@]1(Cn2ccnn2)[C@H](C(=O)O)N2C(=O)C[C@H]2S1(=O)=O [Tazobactam] |  |  |  |  |  |  |  |  |  | 8 µg/mL | 64 µg/mL | >64 µg/mL | 1 µg/mL
